Measured values as given in patent US20250177363A1, “SUBSTITUTED IMIDAZOPYRIDINYL COMPOUNDS USEFUL AS INHIBITORS OF TLR9” (Bristol-Myers Squibb Company, priority 2022, published 2025).
pIC50: −log10 of the molar value.

Columns and labels:
Assay type in all cases: cell-based
human TLR7 = target: T1, human TLR7 (Homo sapiens, UniProt Q9NYK1); assay: TLR7 inhibition reporter assay (HEK-Blue, SEAP); conditions: HEK-Blue cells overexpressing human TLR7, ligand gardiquimod 2.5 μM, 22 hour incubation
T1 construct: host or cells: HEK-Blue cells
T1 sequence (Q9NYK1 27-1049): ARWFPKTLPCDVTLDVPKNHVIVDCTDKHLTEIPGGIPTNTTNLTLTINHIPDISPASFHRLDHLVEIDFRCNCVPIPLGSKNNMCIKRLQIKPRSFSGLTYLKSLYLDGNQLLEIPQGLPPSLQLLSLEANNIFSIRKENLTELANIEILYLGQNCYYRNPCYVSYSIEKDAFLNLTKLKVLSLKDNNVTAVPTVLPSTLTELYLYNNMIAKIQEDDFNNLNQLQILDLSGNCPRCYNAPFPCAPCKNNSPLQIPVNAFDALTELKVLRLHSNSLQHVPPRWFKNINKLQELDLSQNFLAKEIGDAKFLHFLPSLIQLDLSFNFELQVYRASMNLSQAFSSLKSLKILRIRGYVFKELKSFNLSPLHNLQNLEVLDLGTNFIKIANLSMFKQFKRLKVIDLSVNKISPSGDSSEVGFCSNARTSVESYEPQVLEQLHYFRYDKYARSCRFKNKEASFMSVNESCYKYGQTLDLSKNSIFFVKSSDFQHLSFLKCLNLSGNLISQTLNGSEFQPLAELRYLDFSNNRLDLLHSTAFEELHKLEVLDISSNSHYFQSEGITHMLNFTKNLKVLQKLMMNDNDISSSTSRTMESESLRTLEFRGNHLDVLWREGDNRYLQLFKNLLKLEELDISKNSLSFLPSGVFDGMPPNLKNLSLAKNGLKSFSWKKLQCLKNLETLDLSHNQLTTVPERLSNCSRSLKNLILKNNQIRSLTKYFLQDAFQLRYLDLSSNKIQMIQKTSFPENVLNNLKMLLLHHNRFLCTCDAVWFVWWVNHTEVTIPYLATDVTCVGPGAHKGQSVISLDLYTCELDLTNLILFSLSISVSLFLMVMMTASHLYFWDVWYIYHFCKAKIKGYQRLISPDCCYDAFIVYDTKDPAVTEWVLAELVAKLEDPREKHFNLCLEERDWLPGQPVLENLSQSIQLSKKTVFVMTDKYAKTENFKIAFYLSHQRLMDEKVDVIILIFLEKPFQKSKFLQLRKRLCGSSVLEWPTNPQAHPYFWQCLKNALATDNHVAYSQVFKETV
Method in brief: (§1)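 HEK-Blue cells expressing human TLR7, TLR8 or TLR9 with NF-κB/AP-1-driven SEAP reporter; compounds 0.85 nM–50 μM, pre-treated 60 min. Stimulation: gardiquimod 2.5 μM (TLR7), R848 14.25 μM (TLR8), ODN2006 200 nM (TLR9); SEAP read after 22 h at 37 °C. Percent inhibition normalized between agonist+DMSO and known-inhibitor wells.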

human TLR8 = target: T2, human TLR8 (Homo sapiens, UniProt Q9NR97); assay: TLR8 inhibition reporter assay (HEK-Blue, SEAP); conditions: HEK-Blue cells overexpressing human TLR8, ligand R848 14.25 μM, 22 hour incubation
T2 construct: host or cells: HEK-Blue cells
T2 sequence (Q9NR97 27-1041): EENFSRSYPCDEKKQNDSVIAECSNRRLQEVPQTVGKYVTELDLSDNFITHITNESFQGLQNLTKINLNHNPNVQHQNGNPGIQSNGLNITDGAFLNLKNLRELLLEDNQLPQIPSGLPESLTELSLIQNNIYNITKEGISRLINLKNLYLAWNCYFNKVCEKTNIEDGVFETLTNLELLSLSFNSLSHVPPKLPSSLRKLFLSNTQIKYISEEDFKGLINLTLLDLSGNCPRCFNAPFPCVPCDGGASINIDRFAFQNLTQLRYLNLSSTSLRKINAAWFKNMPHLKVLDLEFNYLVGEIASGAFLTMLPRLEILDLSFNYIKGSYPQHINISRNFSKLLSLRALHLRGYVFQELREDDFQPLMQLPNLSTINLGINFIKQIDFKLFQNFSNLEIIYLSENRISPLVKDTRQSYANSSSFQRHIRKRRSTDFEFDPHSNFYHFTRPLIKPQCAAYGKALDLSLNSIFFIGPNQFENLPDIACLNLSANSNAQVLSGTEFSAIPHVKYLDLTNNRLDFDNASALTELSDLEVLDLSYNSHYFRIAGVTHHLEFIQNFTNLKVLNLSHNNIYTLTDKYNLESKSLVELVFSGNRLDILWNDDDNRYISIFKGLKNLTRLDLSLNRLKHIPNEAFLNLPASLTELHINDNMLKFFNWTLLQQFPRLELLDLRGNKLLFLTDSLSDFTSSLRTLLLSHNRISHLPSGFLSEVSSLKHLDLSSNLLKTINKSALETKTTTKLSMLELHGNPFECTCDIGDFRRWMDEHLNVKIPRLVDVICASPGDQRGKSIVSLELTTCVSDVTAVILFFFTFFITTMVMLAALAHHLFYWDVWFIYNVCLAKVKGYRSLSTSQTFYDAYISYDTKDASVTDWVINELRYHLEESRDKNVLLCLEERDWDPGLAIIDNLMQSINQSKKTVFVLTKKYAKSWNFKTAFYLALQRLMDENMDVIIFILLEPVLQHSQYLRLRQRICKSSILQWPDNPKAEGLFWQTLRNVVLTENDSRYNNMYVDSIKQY
Method in brief: as §1

human TLR9 = target: T3, human TLR9 (Homo sapiens, UniProt Q9NR96); assay: TLR9 inhibition reporter assay (HEK-Blue, SEAP); conditions: HEK-Blue cells overexpressing human TLR9, ligand ODN2006 200 nM, 22 hour incubation
T3 construct: host or cells: HEK-Blue cells
T3 sequence (Q9NR96 26-1032): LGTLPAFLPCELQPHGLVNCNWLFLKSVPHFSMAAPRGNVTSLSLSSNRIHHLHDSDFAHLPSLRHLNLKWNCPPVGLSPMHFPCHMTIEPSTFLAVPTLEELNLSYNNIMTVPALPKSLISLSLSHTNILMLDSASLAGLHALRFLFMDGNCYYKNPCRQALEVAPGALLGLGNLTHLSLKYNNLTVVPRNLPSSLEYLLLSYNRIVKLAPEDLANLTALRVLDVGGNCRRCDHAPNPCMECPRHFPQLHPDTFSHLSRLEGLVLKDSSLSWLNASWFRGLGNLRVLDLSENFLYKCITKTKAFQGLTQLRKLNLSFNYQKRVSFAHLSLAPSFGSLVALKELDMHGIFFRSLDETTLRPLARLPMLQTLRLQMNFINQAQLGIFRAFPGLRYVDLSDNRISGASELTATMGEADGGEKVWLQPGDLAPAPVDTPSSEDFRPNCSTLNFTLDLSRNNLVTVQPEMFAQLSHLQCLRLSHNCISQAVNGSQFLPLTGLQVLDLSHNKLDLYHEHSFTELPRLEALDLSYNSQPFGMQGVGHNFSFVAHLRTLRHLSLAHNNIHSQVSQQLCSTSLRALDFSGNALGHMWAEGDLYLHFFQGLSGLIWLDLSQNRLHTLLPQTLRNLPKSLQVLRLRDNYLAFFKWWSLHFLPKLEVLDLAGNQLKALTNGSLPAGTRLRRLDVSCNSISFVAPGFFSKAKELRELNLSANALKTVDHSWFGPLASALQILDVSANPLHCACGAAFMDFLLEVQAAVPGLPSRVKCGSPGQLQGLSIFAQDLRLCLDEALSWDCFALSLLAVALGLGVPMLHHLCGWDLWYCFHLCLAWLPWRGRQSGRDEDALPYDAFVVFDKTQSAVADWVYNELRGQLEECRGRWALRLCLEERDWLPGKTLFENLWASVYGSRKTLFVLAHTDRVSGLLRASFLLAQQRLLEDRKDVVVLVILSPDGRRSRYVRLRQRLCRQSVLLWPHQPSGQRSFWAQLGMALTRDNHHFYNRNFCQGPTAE
Method in brief: as §1

pIC50 (human TLR7)	pIC50 (human TLR8)	pIC50 (human TLR9)	Compound
5.89	< 4.60	7.59	Cc1cc(C2CCN(C3CCN(CC(C)(C)O)CC3)CC2)nc2c1nc(-c1ccc(S(C)(=O)=O)cc1)n2C [Example 22, 1-(4-(3,7-dimethyl-2-(4-(methylsulfonyl)phenyl)-3H-imidazo[4,5-b]pyridin-5-yl)-[1,4′-bipiperidin]-1′-yl)-2-methylpropan-2-ol]
5.72	< 4.30	7.21	Cc1cc(C2CCN(C3CCN(CC4CC4)CC3)CC2)nc2c1nc(-c1ccc(S(C)(=O)=O)cc1)n2C [Example 23, 5-(1′-(cyclopropylmethyl)-[1,4′-bipiperidin]-4-yl)-3,7-dimethyl-2-(4-(methylsulfonyl)phenyl)-3H-imidazo[4,5-b]pyridine]
5.27	< 4.30	6.62	Cc1cc(C2CCN(C3CCN(C4CCC4)CC3)CC2)nc2c1nc(-c1ccc(S(C)(=O)=O)cc1)n2C [Example 24, 5-(1′-cyclobutyl-[1,4′-bipiperidin]-4-yl)-3,7-dimethyl-2-(4-(methylsulfonyl)phenyl)-3H-imidazo[4,5-b]pyridine]
5.39	< 4.30	7.38	Cc1cc(C2CCN(C3CCN(C4CCOCC4)CC3)CC2)nc2c1nc(-c1ccc(S(C)(=O)=O)cc1)n2C [Example 25, 3,7-dimethyl-2-(4-(methylsulfonyl)phenyl)-5-(1′-(tetrahydro-2H-pyran-4-yl)-[1,4′-bipiperidin]-4-yl)-3H-imidazo[4,5-b]pyridine]
5.80	< 4.30	7.38	Cc1cc(C2CCN(C3CC4CCC(C3)N4C3CCC3)CC2)nc2c1nc(-c1ccc(S(C)(=O)=O)cc1)n2C (stereo not drawn) [Example 32, 5-(1-(8-cyclobutyl-8-azabicyclo[3.2.1]octan-3-yl)piperidin-4-yl)-3,7-dimethyl-2-(4-(methylsulfonyl)phenyl)-3H-imidazo[4,5-b]pyridine]
5.82	4.72	7.16	Cc1cc(C2CCN(C3CC4CCC(C3)N4C3CCC3)CC2)nc2c1nc(-c1ccc(S(C)(=O)=O)cc1)n2C (stereo not drawn) [Example 33, 5-(1-(8-cyclobutyl-8-azabicyclo[3.2.1]octan-3-yl)piperidin-4-yl)-3,7-dimethyl-2-(4-(methylsulfonyl)phenyl)-3H-imidazo[4,5-b]pyridine]
6.00	< 4.30	6.85	COc1ccc(-c2nc3c(C)cc(C4CCN([C@H]5C[C@@H]6CN(C(C)C)C[C@@H]6C5)CC4)nc3n2C)cc1OC [Example 36, 2-(3,4-dimethoxyphenyl)-5-(1-((3aR,5s,6aS)-2-isopropyloctahydrocyclopenta[c]pyrrol-5-yl)piperidin-4-yl)-3,7-dimethyl-3H-imidazo[4,5-b]pyridine]
5.92	< 4.30	7.00	COc1ccc(-c2nc3c(C)cc(C4CCN([C@H]5C[C@@H]6CN(CC(C)C)C[C@@H]6C5)CC4)nc3n2C)cc1OC [Example 37, 2-(3,4-dimethoxyphenyl)-5-(1-(2-isobutyloctahydrocyclopenta[c]pyrrol-5-yl)piperidin-4-yl)-3,7-dimethyl-3H-imidazo[4,5-b]pyridine]
6.13	< 4.30	7.10	COc1ccc(-c2nc3c(C)cc(C4CCN([C@H]5C[C@@H]6CN(CC7CC7)C[C@@H]6C5)CC4)nc3n2C)cc1OC [Example 38, 5-(1-(2-(cyclopropylmethyl)octahydrocyclopenta[c]pyrol-5-yl)piperidin-4-yl)-2-(3,4-dimethoxyphenyl)-3,7-dimethyl-3H-imidazo[4,5-b]pyridine]
6.51	4.62	6.89	COc1ccc(-c2nc3c(C)cc(C4CCN([C@H]5C[C@@H]6CN(C7CCC7)C[C@@H]6C5)CC4)nc3n2C)cc1OC [Example 39, 5-(1-(2-cyclobutyloctahydrocyclopenta[c]pyrrol-5-yl)piperidin-4-yl)-2-(3,4-dimethoxyphenyl)-3,7-dimethyl-3H-imidazo[4,5-b]pyridine]
5.89	< 4.30	6.66	COc1ccc(-c2nc3c(C)cc(C4CCN([C@H]5C[C@@H]6CN(C7CCOCC7)C[C@@H]6C5)CC4)nc3n2C)cc1OC [Example 40, 2-(3,4-dimethoxyphenyl)-3,7-dimethyl-5-(1-(2-(tetrahydro-2H-pyran-4-yl)octahydrocyclopenta[c]pyrrol-5-yl)piperidin-4-yl)-3H-imidazo[4,5-b]pyridine]
6.32	< 4.30	7.14	COCCN1C[C@H]2C[C@H](N3CCC(c4cc(C)c5nc(-c6ccc(OC)c(OC)c6)n(C)c5n4)CC3)C[C@H]2C1 [Example 41, 2-(3,4-dimethoxyphenyl)-5-(1-((3aR,5s,6aS)-2-(2-methoxyethyl)octahydrocyclopenta[c]pyrrol-5-yl)piperidin-4-yl)-3,7-dimethyl-3H-imidazo[4,5-b]pyridine]
